Experimental data taken from a melting point compilation (Tetko et al.).

melting point | SMILES
120 to 122 °C | Cc1ccc(F)cc1C(N)=O
75 to 80 °C | N#CC(=S)Nc1ccccc1
89 °C | O=C(O)Cc1cccc(Oc2ccccc2)c1
43 °C | CC(C)CC(=O)C=Cc1ccccc1
123 to 125 °C | O=[N+]([O-])c1ccc2ccccc2c1O
66 °C | CCc1ccc(N2C(=O)C=CC2=O)cc1
200 to 215 °C | O=C(O)c1cnccc1Cl
162 °C | CCC(O)(CC)C1(C)CCC(C(=O)OC)C(C)(C)O1 (configuration not stated)
137 °C | COc1cccc(C(CCC(=O)O)C(C)(C)C(=O)O)c1 (configuration not stated)
42 to 43 °C | O=C=Nc1ccc2c(c1)CCO2
46 to 47 °C | FC(F)(F)c1ccc(Br)nc1
215 °C | [O-][P+](c1ccccc1)(c1ccccc1)C1C2=C(OC3=C1CCc1ccccc13)c1ccccc1CC2
11 °C | C1CCCCCCCC1
105 °C | CCOC(=O)C1=C2c3ncccc3ON2C(Cl)C(Cl)C1Cl (configuration not stated)
278 °C | O=[N+]([O-])c1ccc(-c2ccc(-c3ccc([N+](=O)[O-])cc3)cc2)cc1
-113 °C | CCOC
146 °C | NC(=O)c1ccc(F)c(Cl)c1
246 °C | O=c1cc(-c2ccccc2)oc2cc(O)ccc12
77 to 78 °C | Brc1ccc2occ(Br)c2c1
-29 °C | CCCCCCCCCC1CCCC1
260 °C | O=c1c2ccccc2nc2n1CCc1c-2[nH]c2ccccc12
51 °C | CCCCCCCCCCCCCCCC(=O)CC

melting point | SMILES
108 °C | CN(C)CCOc1ccc(C(=C(CCCl)c2ccccc2)c2ccccc2)cc1
46 °C | O=S(=O)(N(c1ccc(Cl)cn1)S(=O)(=O)C(F)(F)F)C(F)(F)F
249 to 252 °C | c1cnc2c(ccc3nccnc32)n1
206 °C | NNC(=O)c1cc(Cl)cc(Cl)c1
162 °C | C=CCSc1nnc(-c2cc(Br)cc(Br)c2O)n1N
116 to 122 °C | NC1CCC(c2ccccc2)CC1CO (configuration not stated)
-25 °C | CCCCCCCCCCCC(C)C
34 °C | NC(c1ccccc1)c1ccccc1
-4 °C | C=CCOC(=O)OCCOCCOC(=O)OCC=C
-74 °C | CCC(C)(Cl)Cl
145 to 146 °C | CC12CCC(C=C/C1=N\O)C2(C)C (configuration not stated)
163 °C | Cc1ccc(OCC(=O)O)cc1C
84 to 86 °C | N#Cc1ccc2occc2c1
27 to 30 °C | CCC1OC(=O)C(O)=C1C (configuration not stated)
180 to 185 °C | N#Cc1cc([N+](=O)[O-])cc(Cl)c1N
78 °C | O=C1CCCCCCCN1
132 to 133 °C | Cc1ccc(-n2nc(C)cc2O)cc1
99 °C | O=[N+]([O-])c1ccc(I)c(Cl)c1
70 °C | Cc1cc(C)c(O)c([N+](=O)[O-])c1
106 °C | COC(=O)CSc1cc(N=c2sc(=O)n3n2CCCC3)c(F)cc1Cl
208 °C | CC1(C)SC2C(NC(=O)C(N)c3ccccc3)C(=O)N2C1C(=O)O (configuration not stated)
142 °C | O=C(NCO)c1cccnc1

melting point | SMILES
33 to 35 °C | N#Cc1cc(F)ccc1F
131 °C | CCOC1OC(C(N)=O)=CC(C)C1Br (configuration not stated)
86 °C | Cc1cccnc1C#N
79 to 81 °C | OCc1csc2ccc(Br)cc12
192 °C | Nc1ccc(Nc2ccccc2)c2c1C(=O)c1ccccc1C2=O
132 °C | Clc1ncccc1-c1ccc(Br)cn1
157 to 159 °C | CC1(C)C(C=NO)=[N+]([O-])C(C)(C)N1O
8 °C | CCCS(=O)(=O)O
283 °C | CC(=O)Nc1ccc(-c2ccc(NC(C)=O)cc2NC(C)=O)c(NC(C)=O)c1
148 to 149 °C | OCc1ccc(N2CCCCC2)cc1
139 °C | Nc1ccc(O)cc1F
133 °C | ON=Cc1c(F)cccc1Cl
94 to 95 °C | O=C(CBr)Nc1ccccc1C(=O)c1ccccc1
-106 °C | CC(C)CCCCCO
170 °C | O=C(O)c1cc(O)ccc1[N+](=O)[O-]
257 °C | Cc1ccc(C(O)C2C(=O)N(c3ccccc3)N=C2C(F)(F)F)cc1 (configuration not stated)
184 °C | O=C(C=Cc1ccc(O)cc1)c1ccccc1
184 to 187 °C | C=C(NC(C)=O)C(=O)O
145 to 147 °C | O=C(Cl)c1ccc(-c2ccsc2)cc1
163 to 166 °C | O=C(CCl)NNC(=O)c1ccccc1
47.5 °C | Cc1cc(Cl)nn1C
54 to 57 °C | COC(=O)C=Cc1ccc(OC)c(OC2CCCC2)c1

melting point | SMILES
185 to 186 °C | Clc1nc[nH]c1Cl
261 to 263 °C | COC(=O)C1Cc2c3c(c4c(c2CC1C(=O)OC)CC(C(=O)OC)C(C(=O)OC)C4)CC(C(=O)OC)C(C(=O)OC)C3 (configuration not stated)
228 to 233 °C | O=C(O)C1CCCN1 (configuration not stated)
93 °C | O=C(c1c(F)c(F)c(F)c(F)c1F)c1c(F)c(F)c(F)c(F)c1F
97 °C | COc1ccc(CCl)c(C)c1CCl
244 to 245 °C | O=C(O)c1cccc(-c2cncnc2)c1
147 °C | N#Cc1ccc(O)c(F)c1F
200 °C | CC(=O)C(C(=O)OC1CC(C)CCC1C(C)C)C(C)C(C(C)=O)/C(=N\NC(N)=O)OC1CC(C)CCC1C(C)C (configuration not stated)
158 to 162 °C | CCC1NC(C(=O)O)CS1 (mixture of isomers)
165 °C | Nc1c(C(=O)Oc2ccccc2)sc2sc(C(=O)Oc3ccccc3)c(N)c12
18 °C | O=C1CCCCCCCCCCC(=O)OCCO1
299 °C | Cc1cc(=O)oc2cc(O)cc(O)c12
220 to 222 °C | COc1ccc(/C=c2\sc3nc4ccccc4n3c2=O)cc1OC
129 °C | O=S(=O)(Cl)c1cccc2cccnc12
194 °C | Nc1ccc(S(=O)(=O)c2ccc(NCC(=O)O)cc2)cc1
67 to 70 °C | Cn1ccc(-c2ccc(N=C=O)cc2)n1
327 °C | CN(C)c1ccc(C2C3=C(CC(C)(C)CC3=O)Nc3ccc4ccccc4c32)cc1 (configuration not stated)
203 °C | Cc1ccc2nc(C)[nH]c2c1
151 °C | Cc1cc(S(N)(=O)=O)ccc1Br
87 °C | CC(C)C=C1NC(c2ccccc2)OC1=O (configuration not stated)

SMILES | melting point
c1cc(N2CCNCC2)ccn1 | 142 to 144 °C
CC12CCC3C(CCC4CC(O)CCC43C)C1CCC2O (configuration not stated) | 167 °C
CCCCCc1cc(O)c2c(c1)OC(C)(C)C1CCC(C)=CC21 (configuration not stated) | 200 °C
CCCCOC(N)=O | 51 to 56 °C
CN(c1c(F)c(F)c(C#N)c(F)c1F)[N+](=O)[O-] | 53 °C
ICCCI | -20 °C
CC(O)CN(CC(C)O)CC(C)O (configuration not stated) | 48 to 52 °C
CN1CCC2=C(C1)C(c1ccccc1)c1ccccc12 (configuration not stated) | 91 °C
O=c1c2cc(F)ccc2nc(-n2cncn2)n1-c1ccc(Cl)cc1Cl | 192 °C
CCOP(=O)(O)C(N)=O | 174 °C
CC(C)(C)C(O)(CCc1ccc(Cl)cc1)Cn1cncn1 (configuration not stated) | 105 °C
